Experimental data taken from patent US5604234A, “Substituted thiol macrolactam immunomodulators” (Abbott Laboratories, priority 1995, dated 1997).

What follows are compounds tested on human mixed lymphocyte reaction (MLR) (assay: human mixed lymphocyte reaction (MLR), serum free variation). Settings: Homo sapiens, Lymphocyte, serum-free medium AIM V, Table 3.
Format: cell-based
Description: In vitro Assay of Biological Activity (Serum Free MLR)
The in viitro immunosuppressant activity of the compounds of the present invention can also be determined using a variation of the human mixed lymphocyte reaction (MLR) assay described by Kino, T. et al. in Transplantation Proceedings, XIX(5):36-39, Suppl. 6 (1987). In this assay, the cell culture was performed in a serum-free medium, AIM V (GibcoBRL Life Technologies, Grand Island, N.Y.), instead of the usual RPMI 1640 plus 10% heat-inactivated fetal bovine serum medium. The final cell concentrations of the responder and stimulator peripheral blood mononuclear cells were, respectively, 5×10^5/mL and 2×10^6/mL of cells pooled from four donors.

Row | Structure (SMILES) | IC50 [nM]
1 | CCC(=O)S[C@H]1CC[C@@H](/C=C(\C)[C@H]2OC(=O)[C@@H]3CCCCN3C(=O)C(=O)[C@]3(O)O[C@H]([C@@H](OC)C[C@@H](C)C/C(C)=C/[C@@H](CC)C(=O)C[C@H](O)[C@H]2C)[C@@H](OC)C[C@H]3C)C[C@H]1OC [Example 88] | 0.61
2 | CCNC(=O)S[C@H]1CC[C@@H](/C=C(\C)[C@H]2OC(=O)[C@@H]3CCCCN3C(=O)C(=O)[C@]3(O)O[C@H]([C@@H](OC)C[C@@H](C)C/C(C)=C/[C@@H](CC)C(=O)C[C@H](O)[C@H]2C)[C@@H](OC)C[C@H]3C)C[C@H]1OC [Example 91] | 0.09
3 | CCCNC(=O)S[C@H]1CC[C@@H](/C=C(\C)[C@H]2OC(=O)[C@@H]3CCCCN3C(=O)C(=O)[C@]3(O)O[C@H]([C@@H](OC)C[C@@H](C)C/C(C)=C/[C@@H](CC)C(=O)C[C@H](O)[C@H]2C)[C@@H](OC)C[C@H]3C)C[C@H]1OC [Example 92] | 0.26
4 | CC[C@@H]1/C=C(\C)C[C@H](C)C[C@H](OC)[C@H]2O[C@@](O)(C(=O)C(=O)N3CCCC[C@H]3C(=O)O[C@H](/C(C)=C/[C@@H]3CC[C@H](SC(=O)NC(C)C)[C@H](OC)C3)[C@H](C)[C@@H](O)CC1=O)[C@H](C)C[C@@H]2OC [Example 93] | 0.3
5 | CC[C@@H]1/C=C(\C)C[C@H](C)C[C@H](OC)[C@H]2O[C@@](O)(C(=O)C(=O)N3CCCC[C@H]3C(=O)O[C@H](/C(C)=C/[C@@H]3CC[C@H](SC(=O)Nc4ccccc4)[C@H](OC)C3)[C@H](C)[C@@H](O)CC1=O)[C@H](C)C[C@@H]2OC [Example 94] | 1.9
6 | CCOC(=O)CNC(=O)S[C@H]1CC[C@@H](/C=C(\C)[C@H]2OC(=O)[C@@H]3CCCCN3C(=O)C(=O)[C@]3(O)O[C@H]([C@@H](OC)C[C@@H](C)C/C(C)=C/[C@@H](CC)C(=O)C[C@H](O)[C@H]2C)[C@@H](OC)C[C@H]3C)C[C@H]1OC [Example 95] | 10.9
7 | CC[C@@H]1/C=C(\C)C[C@H](C)C[C@H](OC)[C@H]2O[C@@](O)(C(=O)C(=O)N3CCCC[C@H]3C(=O)O[C@H](/C(C)=C/[C@@H]3CC[C@H](SC(=O)N(C)C)[C@H](OC)C3)[C@H](C)[C@@H](O)CC1=O)[C@H](C)C[C@@H]2OC [Example 96] | 0.1
8 | CC[C@@H]1/C=C(\C)C[C@H](C)C[C@H](OC)[C@H]2O[C@@](O)(C(=O)C(=O)N3CCCC[C@H]3C(=O)O[C@H](/C(C)=C/[C@@H]3CC[C@H](SC(=O)N(CC)CC)[C@H](OC)C3)[C@H](C)[C@@H](O)CC1=O)[C@H](C)C[C@@H]2OC [Example 97] | 0.5
9 | CC[C@@H]1/C=C(\C)C[C@H](C)C[C@H](OC)[C@H]2O[C@@](O)(C(=O)C(=O)N3CCCC[C@H]3C(=O)O[C@H](/C(C)=C/[C@@H]3CC[C@H](SC(=O)N4CCOCC4)[C@H](OC)C3)[C@H](C)[C@@H](O)CC1=O)[C@H](C)C[C@@H]2OC [Example 98] | 0.2
10 | CC[C@@H]1/C=C(\C)C[C@H](C)C[C@H](OC)[C@H]2O[C@@](O)(C(=O)C(=O)N3CCCC[C@H]3C(=O)O[C@H](/C(C)=C/[C@@H]3CC[C@H](SC(=O)NCC(=O)OCc4ccc(OC)cc4)[C@H](OC)C3)[C@H](C)[C@@H](O)CC1=O)[C@H](C)C[C@@H]2OC [Example 99] | 8.7
11 | CC[C@@H]1/C=C(\C)C[C@H](C)C[C@H](OC)[C@H]2O[C@@](O)(C(=O)C(=O)N3CCCC[C@H]3C(=O)O[C@H](/C(C)=C/[C@@H]3CC[C@H](SC(=O)NCC(=O)N4CCOCC4)[C@H](OC)C3)[C@H](C)[C@@H](O)CC1=O)[C@H](C)C[C@@H]2OC [Example 101] | 1.1
12 | CC[C@@H]1/C=C(\C)C[C@H](C)C[C@H](OC)[C@H]2O[C@@](O)(C(=O)C(=O)N3CCCC[C@H]3C(=O)O[C@H](/C(C)=C/[C@@H]3CC[C@H](SC(=O)NCC(=O)N4CCCCC4)[C@H](OC)C3)[C@H](C)[C@@H](O)CC1=O)[C@H](C)C[C@@H]2OC [Example 102] | 2
13 | CCOC(CNC(=O)S[C@H]1CC[C@@H](/C=C(\C)[C@H]2OC(=O)[C@@H]3CCCCN3C(=O)C(=O)[C@]3(O)O[C@H]([C@@H](OC)C[C@@H](C)C/C(C)=C/[C@@H](CC)C(=O)C[C@H](O)[C@H]2C)[C@@H](OC)C[C@H]3C)C[C@H]1OC)OCC [Example 104] | 2.5
14 | CC[C@@H]1/C=C(\C)C[C@H](C)C[C@H](OC)[C@H]2O[C@@](O)(C(=O)C(=O)N3CCCC[C@H]3C(=O)O[C@H](/C(C)=C/[C@@H]3CC[C@H](SC(=O)C(=O)OC)[C@H](OC)C3)[C@H](C)[C@@H](O)CC1=O)[C@H](C)C[C@@H]2OC [Example 111] | 4.1
15 | CC[C@@H]1/C=C(\C)C[C@H](C)C[C@H](OC)[C@H]2O[C@@](O)(C(=O)C(=O)N3CCCC[C@H]3C(=O)O[C@H](/C(C)=C/[C@@H]3CC[C@H](SC(=O)c4ccccc4OC(C)=O)[C@H](OC)C3)[C@H](C)[C@@H](O)CC1=O)[C@H](C)C[C@@H]2OC [Example 112] | 0.49
16 | CC[C@@H]1/C=C(\C)C[C@H](C)C[C@H](OC)[C@H]2O[C@@](O)(C(=O)C(=O)N3CCCC[C@H]3C(=O)O[C@H](/C(C)=C/[C@@H]3CC[C@H](SC(=O)c4cccnc4)[C@H](OC)C3)[C@H](C)[C@@H](O)CC1=O)[C@H](C)C[C@@H]2OC [Example 113] | 0.15
17 | CC[C@@H]1/C=C(\C)C[C@H](C)C[C@H](OC)[C@H]2O[C@@](O)(C(=O)C(=O)N3CCCC[C@H]3C(=O)O[C@H](/C(C)=C/[C@@H]3CC[C@H](SC(=O)c4ccncc4)[C@H](OC)C3)[C@H](C)[C@@H](O)CC1=O)[C@H](C)C[C@@H]2OC [Example 114] | 0.14
18 | CC[C@@H]1/C=C(\C)C[C@H](C)C[C@H](OC)[C@H]2O[C@@](O)(C(=O)C(=O)N3CCCC[C@H]3C(=O)O[C@H](/C(C)=C/[C@@H]3CC[C@H](SC(=O)CNC(C)=O)[C@H](OC)C3)[C@H](C)[C@@H](O)CC1=O)[C@H](C)C[C@@H]2OC [Example 115] | 0.02

Other lines, results leading:

Row | IC50 [nM] | Structure (SMILES)
19 | 3.1 | CC[C@@H]1/C=C(\C)C[C@H](C)C[C@H](OC)[C@H]2O[C@@](O)(C(=O)C(=O)N3CCCC[C@H]3C(=O)O[C@H](/C(C)=C/[C@@H]3CC[C@H](SC(=O)CCNC(C)=O)[C@H](OC)C3)[C@H](C)[C@@H](O)CC1=O)[C@H](C)C[C@@H]2OC [Example 116]
20 | 2.5 | CC[C@@H]1/C=C(\C)C[C@H](C)C[C@H](OC)[C@H]2O[C@@](O)(C(=O)C(=O)N3CCCC[C@H]3C(=O)O[C@H](/C(C)=C/[C@@H]3CC[C@H](SC(=O)c4ccccc4NC(C)=O)[C@H](OC)C3)[C@H](C)[C@@H](O)CC1=O)[C@H](C)C[C@@H]2OC [Example 118]
21 | 3 | CC[C@@H]1/C=C(\C)C[C@H](C)C[C@H](OC)[C@H]2O[C@@](O)(C(=O)C(=O)N3CCCC[C@H]3C(=O)O[C@H](/C(C)=C/[C@@H]3CC[C@H](SC(=O)c4ccccc4C#N)[C@H](OC)C3)[C@H](C)[C@@H](O)CC1=O)[C@H](C)C[C@@H]2OC [Example 119]
22 | 1.2 | CC[C@@H]1/C=C(\C)C[C@H](C)C[C@H](OC)[C@H]2O[C@@](O)(C(=O)C(=O)N3CCCC[C@H]3C(=O)O[C@H](/C(C)=C/[C@@H]3CC[C@H](SC(=O)c4ccccn4)[C@H](OC)C3)[C@H](C)[C@@H](O)CC1=O)[C@H](C)C[C@@H]2OC [Example 120]
23 | 2.6 | CC[C@@H]1/C=C(\C)C[C@H](C)C[C@H](OC)[C@H]2O[C@@](O)(C(=O)C(=O)N3CCCC[C@H]3C(=O)O[C@H](/C(C)=C/[C@@H]3CC[C@H](SC(=O)CNC(N)=O)[C@H](OC)C3)[C@H](C)[C@@H](O)CC1=O)[C@H](C)C[C@@H]2OC [Example 121]
24 | 1.5 | CC[C@@H]1/C=C(\C)C[C@H](C)C[C@H](OC)[C@H]2O[C@@](O)(C(=O)C(=O)N3CCCC[C@H]3C(=O)O[C@H](/C(C)=C/[C@@H]3CC[C@H](SC(=O)[C@@H](NC(C)=O)[C@@H](C)O)[C@H](OC)C3)[C@H](C)[C@@H](O)CC1=O)[C@H](C)C[C@@H]2OC [Example 122]
25 | 2.8 | CC[C@@H]1/C=C(\C)C[C@H](C)C[C@H](OC)[C@H]2O[C@@](O)(C(=O)C(=O)N3CCCC[C@H]3C(=O)O[C@H](/C(C)=C/[C@@H]3CC[C@H](SC(=O)[C@H](C)O)[C@H](OC)C3)[C@H](C)[C@@H](O)CC1=O)[C@H](C)C[C@@H]2OC [Example 123]
26 | 2 | CC[C@@H]1/C=C(\C)C[C@H](C)C[C@H](OC)[C@H]2O[C@@](O)(C(=O)C(=O)N3CCCC[C@H]3C(=O)O[C@H](/C(C)=C/[C@@H]3CC[C@H](SC(=O)[C@@H](C)O)[C@H](OC)C3)[C@H](C)[C@@H](O)CC1=O)[C@H](C)C[C@@H]2OC [Example 124]
27 | 3.5 | CC[C@@H]1/C=C(\C)C[C@H](C)C[C@H](OC)[C@H]2O[C@@](O)(C(=O)C(=O)N3CCCC[C@H]3C(=O)O[C@H](/C(C)=C/[C@@H]3CC[C@H](SC(=O)CO)[C@H](OC)C3)[C@H](C)[C@@H](O)CC1=O)[C@H](C)C[C@@H]2OC [Example 125]

Same assay, conditions: Lymphocyte, serum-free medium AIM V, Table 3

Row | Structure (SMILES) | IC50 [nM]
28 | CC[C@@H]1/C=C(\C)C[C@H](C)C[C@H](OC)[C@H]2O[C@@](O)(C(=O)C(=O)N3CCCC[C@H]3C(=O)O[C@H](/C(C)=C/[C@@H]3CC[C@H](SC(=O)NCC(=O)OCC[Si](C)(C)C)[C@H](OC)C3)[C@H](C)[C@@H](O)CC1=O)[C@H](C)C[C@@H]2OC [Example 100] | 5.8

What follows are compounds tested on human mixed lymphocyte reaction (MLR) (assay: human mixed lymphocyte reaction (MLR) assay, immunosuppressant activity). Settings: Homo sapiens, Lymphocyte, Table 2.
Format: cell-based
Description: The immunosuppressant activity of the compounds of the present invention was determined using the human mixed lymphocyte reaction (MLR) assay described by Kino, T. et al. in Transplantation Proceedings, XIX(5):36-39,Suppl. 6 (1987).

Row | IC50 [nM] | Structure (SMILES)
29 | 12.5 | CC[C@@H]1/C=C(\C)C[C@H](C)C[C@H](OC)[C@H]2O[C@@](O)(C(=O)C(=O)N3CCCC[C@H]3C(=O)O[C@H](/C(C)=C/[C@@H]3CC[C@H]([S+](C)[O-])[C@H](OC)C3)[C@H](C)[C@@H](O)CC1=O)[C@H](C)C[C@@H]2OC (single isomer, unassigned) [Example 127]
30 | 6.2 | CC[C@@H]1/C=C(\C)C[C@H](C)C[C@H](OC)[C@H]2O[C@@](O)(C(=O)C(=O)N3CCCC[C@H]3C(=O)O[C@H](/C(C)=C/[C@@H]3CC[C@H]([S+]([O-])c4ccccc4)[C@H](OC)C3)[C@H](C)[C@@H](O)CC1=O)[C@H](C)C[C@@H]2OC (single isomer, unassigned) [Example 133A]
